Test results reported in PubChem BioAssay AID2060898 (Molecular Pharmacology Branch, DTP, NCI, 2025).

System: 616215-338-R-J1-PDC complex spheroid viability
Test: Anticancer human tumor 616215-338-R-J1-PDC patient-derived colon adenocarcinoma cell line growth inhibition [RAS]
Settings: for IC50: curve of first compound; for viability, T/C: stronger effect = lower value
Summary of the method: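 Agents were tested in combination matrices in half-log decrements from a top concentration at or near clinical Cmax (10 microM if undetermined). Targets were multi-cell spheroids of tumour lines plus HUVEC and MSC stromal cells.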

[1] = second compound 0.0316 µM, first compound 0.0316 µM
[2] = second compound 0.0316 µM, first compound 0.1 µM
[3] = second compound 0.0316 µM, first compound 0.316 µM
[4] = second compound 0.0316 µM, first compound 1 µM
[5] = second compound 0.0316 µM, first compound 3.16 µM
[6] = second compound 0.0316 µM, first compound 10 µM
[7] = second compound 0.1 µM, first compound 0.0316 µM
[8] = second compound 0.1 µM, first compound 0.1 µM
[9] = second compound 0.1 µM, first compound 0.316 µM
[10] = second compound 0.1 µM, first compound 1 µM
[11] = second compound 0.1 µM, first compound 3.16 µM
[12] = second compound 0.1 µM, first compound 10 µM
[13] = second compound 0.316 µM, first compound 0.0316 µM
[14] = second compound 0.316 µM, first compound 0.1 µM
[15] = second compound 0.316 µM, first compound 0.316 µM
[16] = second compound 0.316 µM, first compound 1 µM
[17] = second compound 0.316 µM, first compound 3.16 µM
[18] = second compound 0.316 µM, first compound 10 µM
[19] = second compound 1 µM, first compound 0.0316 µM
[20] = second compound 1 µM, first compound 0.1 µM
[21] = second compound 1 µM, first compound 0.316 µM
[22] = second compound 1 µM, first compound 1 µM
[23] = second compound 1 µM, first compound 3.16 µM
[24] = second compound 1 µM, first compound 10 µM
[25] = second compound 3.16 µM, first compound 0.0316 µM
[26] = second compound 3.16 µM, first compound 0.1 µM
[27] = second compound 3.16 µM, first compound 0.316 µM
[28] = second compound 3.16 µM, first compound 1 µM
[29] = second compound 3.16 µM, first compound 3.16 µM
[30] = second compound 3.16 µM, first compound 10 µM
[31] = second compound 10 µM, first compound 0.0316 µM
[32] = second compound 10 µM, first compound 0.1 µM
[33] = second compound 10 µM, first compound 0.316 µM
[34] = second compound 10 µM, first compound 1 µM
[35] = second compound 10 µM, first compound 3.16 µM
[36] = second compound 10 µM, first compound 10 µM
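Further: spheroids exposed to agents for seven days before viability readout.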
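Wherever viability, T/C is given: 100% = DMSO vehicle control viability.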

For `CC1(O)CCCC1n1c(=O)c(C(F)F)cc2cnc(NC3CCN(S(C)(=O)=O)CC3)nc21` (stereo not drawn) + C#Cc1c(F)ccc2cc(O)cc(-c3ncc4c(N5CC6CCC(C5)N6)nc(OCC56CCCN5CC(F)C6)nc4c3F)c12, the IC50 (second compound 0.0316 µM) was 1070 nM, the IC50 (second compound 0.1 µM) was 924 nM and the IC50 (second compound 0.316 µM) was 833 nM. The IC50 (second compound 1 µM) was 255 nM, the IC50 (second compound 3.16 µM) was 132 nM and the IC50 (second compound 10 µM) was 44 nM. The viability, T/C [1] was 110%, the viability, T/C [2] was 114% and the viability, T/C [3] was 53.5%. For the same compound, the viability, T/C [4] was 49.1%, the viability, T/C [5] was 45.4% and the viability, T/C [6] was 1.06%. The viability, T/C [7] was 107%, the viability, T/C [8] was 118% and the viability, T/C [9] was 50.2%. It also gave a viability, T/C [10] of 46.8%, a viability, T/C [11] of 39.4% and a viability, T/C [12] of 0.75%. The viability, T/C [13] was 117%, the viability, T/C [14] was 112% and the viability, T/C [15] was 54.5%. The viability, T/C [16] was 44%, the viability, T/C [17] was 37.9% and the viability, T/C [18] was 2.34%. For the same compound, the viability, T/C [19] was 111%, the viability, T/C [20] was 94.2% and the viability, T/C [21] was 38.8%. For the same compound, the viability, T/C [22] was 45.9%, the viability, T/C [23] was 50.5% and the viability, T/C [24] was 0.81%. It also gave a viability, T/C [25] of 90.4%, a viability, T/C [26] of 49.9% and a viability, T/C [27] of 29.8%. The viability, T/C [28] was 35.8%, the viability, T/C [29] was 31.4% and the viability, T/C [30] was 2.44%. For the same compound, the viability, T/C [31] was 59.5%, the viability, T/C [32] was 23.7% and the viability, T/C [33] was 26.1%. It also gave a viability, T/C [34] of 22.2%, a viability, T/C [35] of 21.8% and a viability, T/C [36] of 1.18%.

For `CCC(CC)c1cc(NC2CCC(N)C2)n2nccc2n1` (stereo not drawn) + C#Cc1c(F)ccc2cc(O)cc(-c3ncc4c(N5CC6CCC(C5)N6)nc(OCC56CCCN5CC(F)C6)nc4c3F)c12, the IC50 (second compound 0.0316 µM) was 1780 nM, the IC50 (second compound 0.1 µM) was 1780 nM and the IC50 (second compound 0.316 µM) was 1840 nM. For the same compound, the IC50 (second compound 1 µM) was 1850 nM, the IC50 (second compound 3.16 µM) was 1510 nM and the IC50 (second compound 10 µM) was 1240 nM. It also gave a viability, T/C [1] of 102%, a viability, T/C [2] of 98.3% and a viability, T/C [3] of 109%. The viability, T/C [4] was 99.3%, the viability, T/C [5] was 0.29% and the viability, T/C [6] was 1.51%. The viability, T/C [7] was 104%, the viability, T/C [8] was 105% and the viability, T/C [9] was 96.3%. The viability, T/C [10] was 99.9%, the viability, T/C [11] was 0.27% and the viability, T/C [12] was 0.21%. For the same compound, the viability, T/C [13] was 112%, the viability, T/C [14] was 111% and the viability, T/C [15] was 101%. For the same compound, the viability, T/C [16] was 106%, the viability, T/C [17] was 0.21% and the viability, T/C [18] was 1.88%. For the same compound, the viability, T/C [19] was 105%, the viability, T/C [20] was 110% and the viability, T/C [21] was 113%. The viability, T/C [22] was 106%, the viability, T/C [23] was 1.09% and the viability, T/C [24] was 1.83%. It also gave a viability, T/C [25] of 115%, a viability, T/C [26] of 111% and a viability, T/C [27] of 121%. The viability, T/C [28] was 77.7%, the viability, T/C [29] was 0.19% and the viability, T/C [30] was 1.03%. The viability, T/C [31] was 83.3%, the viability, T/C [32] was 74.5% and the viability, T/C [33] was 108%. For the same compound, the viability, T/C [34] was 61.3%, the viability, T/C [35] was 3.3% and the viability, T/C [36] was 0.3%.

Work on `CCN1CCN(Cc2ccc(Nc3ncc(F)c(-c4cc(F)c5nc(C)n(C(C)C)c5c4)n3)nc2)CC1` + C#Cc1c(F)ccc2cc(O)cc(-c3ncc4c(N5CC6CCC(C5)N6)nc(OCC56CCCN5CC(F)C6)nc4c3F)c12 yielded an IC50 (second compound 0.0316 µM) greater than 1000 nM, an IC50 (second compound 0.1 µM) greater than 1000 nM and an IC50 (second compound 0.316 µM) of 874 nM. For the same compound, the IC50 (second compound 1 µM) was 693 nM, the IC50 (second compound 3.16 µM) was 175 nM and the IC50 (second compound 10 µM) was 30.9 nM. The viability, T/C (second compound 0.0316 µM, first compound 0.00316 µM) was 96.4%, the viability, T/C (second compound 0.0316 µM, first compound 0.01 µM) was 117% and the viability, T/C [1] was 120%. The viability, T/C [2] was 108%, the viability, T/C [3] was 131% and the viability, T/C [4] was 53.2%. The viability, T/C (second compound 0.1 µM, first compound 0.00316 µM) was 97.9%, the viability, T/C (second compound 0.1 µM, first compound 0.01 µM) was 110% and the viability, T/C [7] was 113%. It also gave a viability, T/C [8] of 124%, a viability, T/C [9] of 129% and a viability, T/C [10] of 50.8%. It also gave a viability, T/C (second compound 0.316 µM, first compound 0.00316 µM) of 105%, a viability, T/C (second compound 0.316 µM, first compound 0.01 µM) of 110% and a viability, T/C [13] of 121%. For the same compound, the viability, T/C [14] was 120%, the viability, T/C [15] was 112% and the viability, T/C [16] was 41.7%. For the same compound, the viability, T/C (second compound 1 µM, first compound 0.00316 µM) was 120%, the viability, T/C (second compound 1 µM, first compound 0.01 µM) was 118% and the viability, T/C [19] was 130%. It also gave a viability, T/C [20] of 88%, a viability, T/C [21] of 74.2% and a viability, T/C [22] of 39.7%. For the same compound, the viability, T/C (second compound 3.16 µM, first compound 0.00316 µM) was 90.8%, the viability, T/C (second compound 3.16 µM, first compound 0.01 µM) was 98.1% and the viability, T/C [25] was 70%. For the same compound, the viability, T/C [26] was 58.2%, the viability, T/C [27] was 44.6% and the viability, T/C [28] was 30.9%. It also gave a viability, T/C (second compound 10 µM, first compound 0.00316 µM) of 76.1%, a viability, T/C (second compound 10 µM, first compound 0.01 µM) of 58.5% and a viability, T/C [31] of 51.9%. The viability, T/C [32] was 35.5%, the viability, T/C [33] was 39.3% and the viability, T/C [34] was 23.9%.

In the case of `C[C@@H](NC(=O)c1ncnc(N)c1Cl)c1ncc(C(=O)Nc2cc(C(F)(F)F)c(Cl)cn2)s1` + C#Cc1c(F)ccc2cc(O)cc(-c3ncc4c(N5CC6CCC(C5)N6)nc(OCC56CCCN5CC(F)C6)nc4c3F)c12, the IC50 (second compound 0.0316 µM) is reported as greater than 10000 nM, the IC50 (second compound 0.1 µM) is reported as greater than 10000 nM and the IC50 (second compound 0.316 µM) is reported as 9710 nM. It also gave an IC50 (second compound 1 µM) of 5990 nM, an IC50 (second compound 3.16 µM) of 3610 nM and an IC50 (second compound 10 µM) of 758 nM. It also gave a viability, T/C [1] of 120%, a viability, T/C [2] of 109% and a viability, T/C [3] of 109%. For the same compound, the viability, T/C [4] was 109%, the viability, T/C [5] was 86.8% and the viability, T/C [6] was 55.2%. It also gave a viability, T/C [7] of 104%, a viability, T/C [8] of 111% and a viability, T/C [9] of 108%. For the same compound, the viability, T/C [10] was 109%, the viability, T/C [11] was 90.8% and the viability, T/C [12] was 52.2%. For the same compound, the viability, T/C [13] was 111%, the viability, T/C [14] was 113% and the viability, T/C [15] was 121%. The viability, T/C [16] was 117%, the viability, T/C [17] was 87.9% and the viability, T/C [18] was 49%. For the same compound, the viability, T/C [19] was 109%, the viability, T/C [20] was 112% and the viability, T/C [21] was 108%. It also gave a viability, T/C [22] of 91.5%, a viability, T/C [23] of 68.3% and a viability, T/C [24] of 35.8%. For the same compound, the viability, T/C [25] was 99.3%, the viability, T/C [26] was 111% and the viability, T/C [27] was 72.3%. For the same compound, the viability, T/C [28] was 82.2%, the viability, T/C [29] was 52.2% and the viability, T/C [30] was 24.3%. For the same compound, the viability, T/C [31] was 84.3%, the viability, T/C [32] was 69.7% and the viability, T/C [33] was 67.2%. The viability, T/C [34] was 46.4%, the viability, T/C [35] was 24.8% and the viability, T/C [36] was 18.7%.
